Source: patent US20220330549A1, “USE OF N-BENZYLBENZAMIDE-BASED COMPOUND AS HERBICIDE” (Northwest A&F University, priority 2020, published 2022)

Columns and labels:
Format in all cases: in vivo
Broadleaf weed = experiment: Post-emergence herbicidal activity test in a paddy field; parameters: key: level scale; higher level = more weed left vs blank control; conditions: 150 g a.i./ha (penoxsulam control 250 g(a.i.)/h)
Summary of the method: (§1)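 Efficacy was visually estimated 15 and 30 days after spraying, grading weed coverage relative to an untreated neighbouring plot (level 2 = 0 to 2.5%, level 9 = 67.6 to 100%). Treatments were 150 g(a.i.)/ha from 10% emulsifiable concentrates applied at the 4-5 leaf rice stage, four repeats of 50 m^2 each.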

Cyperaceae = experiment: as above; parameters: key: level scale; higher level = more weed left vs blank control; conditions: 150 g a.i./ha (penoxsulam control 250 g(a.i.)/h)
Summary of the method: as §1

Gramineae = experiment: as above; parameters: key: level scale; higher level = more weed left vs blank control; conditions: 150 g a.i./ha (penoxsulam control 250 g(a.i.)/h)
Summary of the method: as §1

Humulus scandens [1] = experiment: Herbicidal activity test for indoor pre-emergence soil treatment; conditions: 150 g a.i./ha, visual inspection 21 days after treatment
Summary of the method: (§2)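 Compounds were formulated as 10% emulsifiable concentrates and sprayed onto the soil 24 h after sowing, at 150 g(a.i.)/ha. Soil was sandy loam (≤2% organic matter), with seeds under 0.5–2.0 cm cover, per NY/T 1155.3-2006. Visual 1–9 ratings relative to blank control were made after 21 days.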

Barnyard grass [2] = experiment: as above; parameters: key: level 1-9; higher = more weed remaining vs blank control; conditions: 150 g a.i./ha, visual inspection 21 days after treatment
Summary of the method: as §2

Piemarker [3] = experiment: as above; parameters: key: level 1-9; higher = more weed remaining vs blank control; conditions: 150 g a.i./ha, visual inspection 21 days after treatment
Summary of the method: as §2

green bristlegrass [4] = experiment: as above; parameters: key: level 1-9; higher = more weed remaining vs blank control; conditions: 150 g a.i./ha, visual inspection 21 days after treatment
Summary of the method: as §2

Portulaca oleracea = experiment: Field test for weed control in a corn field
Summary of the method: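 Field efficacy trial in corn following GB/T 17980.42-2000. Test compounds were prepared as 10% emulsifiable concentrates, diluted in water, and sprayed at 150 g(a.i.)/ha when corn had 2 to 5 leaves after sowing. Plots were 20 m^2 with 4 replicates per treatment. Herbicidal activity was scored on a 1-9 scale from weed damage symptoms and severity.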

Convolvulus arvensis = experiment: Field test for weed control in a corn field
Summary of the method: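 Field trial of weed control against Convolvulus arvensis in corn, run following GB/T 17980.42-2000. Test agents were formulated as 10% emulsifiable concentrates and sprayed in water at 150 g(a.i.)/ha when corn plants had 2 to 5 leaves. Each treatment was replicated 4 times on 20 m^2 plots, and 25% mesotrione oil dispersion served as the control agent.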

Solanum nigrum = experiment: Field test for weed control in a corn field
Summary of the method: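 Post-emergence weed control was tested in a corn field following GB/T 17980.42-2000. Compounds were made into 10% emulsifiable concentrates, diluted in water and sprayed at 150 g(a.i.)/ha when corn had 2 to 5 leaves after sowing, in 20 m^2 plots with 4 replicates. Effects on Solanum nigrum were graded on a 1-9 scale relative to the blank control area.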

Barnyard grass [5] = experiment: Field test for weed control in a corn field
Summary of the method: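 Corn-field efficacy trial following GB/T 17980.42-2000. Test compounds were formulated as 10% emulsifiable concentrates, diluted in water and sprayed post-emergence at 150 g(a.i.)/ha when corn had 2 to 5 leaves. Each treatment was replicated 4 times on 20 m^2 plots. Barnyard grass control was rated on a 1-9 damage scale.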

nutgrass flatsedge = experiment: Field test for weed control in a corn field
Summary of the method: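 A corn field efficacy trial following GB/T 17980.42-2000 assessed post-emergence control of nutgrass flatsedge. Test compounds were formulated as 10% emulsifiable concentrates, diluted in water, and sprayed at 150 g(a.i.)/ha when the corn had 2 to 5 leaves. Each treatment had 4 replicates on 20 m^2 plots. Herbicidal activity was graded on a 1-9 scale by damage symptoms and severity.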

Chenopodium album = experiment: Field test for weed control in a corn field
Summary of the method: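 A corn-field efficacy trial following GB/T 17980.42-2000 tested post-emergence control of Chenopodium album. Test compounds formulated as 10% emulsifiable concentrates were diluted in water and sprayed at 150 g(a.i.)/ha when the corn had 2 leaves to 5 leaves, on 20 m^2 plots with 4 replicates. Herbicidal activity was rated on a 1-9 scale by damage symptoms and severity.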

Acalypha australis = experiment: Field test for weed control in a corn field
Summary of the method: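 Post-emergence field trial in a corn field following GB/T 17980.42-2000. Test compounds were formulated as 10% emulsifiable concentrates, diluted in water, and sprayed at 150 g(a.i.)/ha when corn had 2 to 5 leaves, with 4 replicates on 20 m^2 plots. Mesotrione 25% oil dispersion served as the control agent. Weed control was scored on a 1-9 scale.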

goosegrass = experiment: Field test for weed control in a corn field
Summary of the method: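 Weed control efficacy against goosegrass was tested in a corn field following GB/T 17980.42-2000. Compounds formulated as 10% emulsifiable concentrates were diluted in water and sprayed post-emergence at 150 g(a.i.)/ha when corn had 2 to 5 leaves, with 4 replicates of 20 m^2 plots. Herbicidal activity was rated on a 1-9 scale by damage symptoms and severity.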

green bristlegrass [6] = experiment: Field test for weed control in a corn field
Summary of the method: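 Post-emergence weed control was tested in a corn field following GB/T 17980.42-2000. When the corn had 2 leaves to 5 leaves after sowing, 10% emulsifiable concentrates diluted in water were sprayed at 150 g(a.i.)/ha on 20 m^2 plots, four replicates per treatment. Effects on green bristlegrass were scored on a 1-9 damage scale relative to the blank control area.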

Amaranthus retroflexus [7] = experiment: Field test for weed control in a corn field
Summary of the method: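 Field efficacy trial in a corn field following GB/T 17980.42-2000. Test compounds were formulated as 10% emulsifiable concentrates, diluted in water and sprayed post-emergence when corn had 2 to 5 leaves. Each treatment covered 20 m^2 with 4 replicates. A 25% mesotrione oil dispersion served as control. Damage to Amaranthus retroflexus was rated on a 1-9 scale against untreated blank plots.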

Digitaria sanguinalis [8] = experiment: Field test for weed control in a corn field
Summary of the method: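 Field trial in a corn field following GB/T 17980.42-2000. Test compounds were formulated as 10% emulsifiable concentrates, diluted in water and sprayed post-emergence at 150 g(a.i.)/ha when corn had 2 to 5 leaves, with 4 replicates on 20 m^2 plots. Control of Digitaria sanguinalis was scored on a 1-9 scale based on weed damage relative to the untreated blank area.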

Amaranthus retroflexus [9] = experiment: Herbicidal activity test for indoor pre-emergence soil treatment; parameters: key: 1-9 levels; higher = more weed remaining vs blank control; conditions: 150 g a.i./ha, visual inspection 21 days after treatment
Summary of the method: as §2

Digitaria sanguinalis [10] = experiment: as above; parameters: key: 1-9 levels; higher = more weed remaining vs blank control; conditions: 150 g a.i./ha, visual inspection 21 days after treatment
Summary of the method: as §2

Barnyard grass [11] = experiment: Herbicidal activity test for indoor post-emergence spraying on stems and leaves; parameters: key: grade level by weed remaining vs blank control, e.g. 5 = 10.1-15%; conditions: 150 g a.i./ha, visual inspection 21 days after treatment
Summary of the method: (§3)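 Visual inspection at 21 days after treatment gave a level rating, each level defined as a percentage band of the weed remaining in the blank control area. Plants were sprayed on stems and leaves after emergence, following NY/T 1155.4-2006.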

Piemarker [12] = experiment: as above; parameters: key: grade level by weed remaining vs blank control, e.g. 5 = 10.1-15%; conditions: 150 g a.i./ha, visual inspection 21 days after treatment
Summary of the method: as §3

Humulus scandens [13] = experiment: as above; parameters: key: grade level by weed remaining vs blank control, e.g. 5 = 10.1-15%; conditions: 150 g a.i./ha, visual inspection 21 days after treatment
Summary of the method: as §3

green bristlegrass [14] = experiment: as above; parameters: key: grade level by weed remaining vs blank control, e.g. 5 = 10.1-15%; conditions: 150 g a.i./ha, visual inspection 21 days after treatment
Summary of the method: as §3

Amaranthus retroflexus [15] = experiment: as above; parameters: key: grade level by weed remaining vs blank control, e.g. 5 = 10.1-15%; conditions: 150 g a.i./ha, visual inspection 21 days after treatment
Summary of the method: as §3

Digitaria sanguinalis [16] = experiment: as above; parameters: key: grade level by weed remaining vs blank control, e.g. 5 = 10.1-15%; conditions: 150 g a.i./ha, visual inspection 21 days after treatment
Summary of the method: as §3

[17] = 150 g(a.i.)/ha, 21 days after treatments
[18] = 150 g a.i./ha, 30 days after treatment

Cc1cccc(C(=O)NCc2cc(F)cc(Cl)c2)n1 [Compound B27]
1: Herbicidal activity 15 days after treatment Broadleaf weed (Broadleaf weed; 15 days after treatment) | Herbicidal activity 30 days after treatment Broadleaf weed (Broadleaf weed; 30 days after treatment) | Herbicidal activity 15 days after treatment Cyperaceae (Cyperaceae; 15 days after treatment) | Herbicidal activity 30 days after treatment Cyperaceae (Cyperaceae; 30 days after treatment) | Herbicidal activity 15 days after treatment Gramineae (Gramineae; 15 days after treatment) | Herbicidal activity 30 days after treatment Gramineae (Gramineae; 30 days after treatment) | Herbicidal Activity Humulus scandens (Humulus scandens [1]) | Herbicidal Activity Barnyard grass (Barnyard grass [2]) | Herbicidal Activity Piemarker (Piemarker [3]) | Herbicidal Activity Green bristlegrass (green bristlegrass [4]) | Post-emergence weed control effect, Portulaca oleracea (Portulaca oleracea; 150 g a.i./ha, after treatment) | controlling effect on Portulaca oleracea (Portulaca oleracea; [17]) | Post-emergence weed control effect, Convolvulus arvensis (Convolvulus arvensis; 150 g a.i./ha, after treatment) | controlling effect on Convolvulus arvensis (Convolvulus arvensis; [17]) | Post-emergence weed control effect, Solanum nigrum (Solanum nigrum; [18]) | controlling effect on Solanum nigrum (Solanum nigrum; [17]) | Post-emergence weed control effect, Barnyard grass (Barnyard grass [5]; [18]) | controlling effect on barnyard grass (Barnyard grass [5]; [17]) | Post-emergence weed control effect, Nutgrass flatsedge (nutgrass flatsedge; 150 g a.i./ha, after treatment) | controlling effect on nutgrass flatsedge (nutgrass flatsedge; [17]) | Post-emergence weed control effect, Chenopodium album (Chenopodium album; 150 g a.i./ha, after treatment) | controlling effect on Chenopodium album (Chenopodium album; [17]) | Post-emergence weed control effect, Acalypha australis (Acalypha australis; 150 g a.i./ha, after treatment) | controlling effect on Acalypha australis (Acalypha australis; [17]) | Post-emergence weed control effect, Goose grass (goosegrass; 150 g a.i./ha, after treatment) | controlling effect on goosegrass (goosegrass; [17]) | Post-emergence weed control effect, Green bristlegrass (green bristlegrass [6]; 150 g a.i./ha, after treatment) | controlling effect on green bristlegrass (green bristlegrass [6]; [17]) | Post-emergence weed control effect, Amaranthus retroflexus (Amaranthus retroflexus [7]; [18]) | controlling effect on Amaranthus retroflexus (Amaranthus retroflexus [7]; [17]) | Post-emergence weed control effect, Digitaria sanguinalis (Digitaria sanguinalis [8]; 150 g a.i./ha, after treatment) | controlling effect on Digitaria sanguinalis (Digitaria sanguinalis [8]; [17]) | Herbicidal Activity Amaranthus retroflexus (Amaranthus retroflexus [9]) | Herbicidal Activity Digitaria sanguinalis (Digitaria sanguinalis [10]) | Herbicidal Activity Barnyard grass (Barnyard grass [11]) | Herbicidal Activity Piemarker (Piemarker [12]) | Herbicidal Activity Humulus scandens (Humulus scandens [13]) | Herbicidal Activity Green bristlegrass (green bristlegrass [14]) | Herbicidal Activity Amaranthus retroflexus (Amaranthus retroflexus [15]) | Herbicidal Activity Digitaria sanguinalis (Digitaria sanguinalis [16])
